Data reported in US20110207751A1, “HETEROCYCLIC COMPOUNDS AND USES AS ANTICANCER AGENTS” (priority 2010, published 2011).
Where a name gives a salt, the structure may show the parent alone. Blank lines part the entries; values can stand above or below the compound they belong to.

Legend:
[1] = system: A549 human lung cancer cells; experiment: Cell Death Detection ELISA, apoptosis; type: cell-based; settings: 37 nM, 24 hr, 48 hr, 72 hr
Description: To test if COMPOUND O compound induces apoptosis in cancer cells, the A549 human lung cancer cells were treated with 37 nM COMPOUND O and 37 nM paclitaxel. Cell apoptosis and death detection was measured by Cell Death Detection ELISA kit (Roche Applied Sciences), according to the assay protocol from the kit. Briefly, 5000 cells were seeded into each well of the 96-well plate. […] Cells were harvested and lysed 24 hr, 48 hr or 72 hr post drug treatment. Twenty microliters of lysate were removed and transferred to streptavidin-coated microplate and then incubated with anti-histone-biotin and anti-DNA-POD antibodies for 2 hr followed by adding 2,2′-azinobis-3-ethylbenzthiazoline-sulphonic-acid substrate for color development. The plate was measured at an absorbance of 405 and 490 nm in a Beckman Multimode DTX880 plate reader.

[2] = system: SKOV3 cells (human ovarian cancer cell line); experiment: Inhibition of cell proliferation, xCelligence cell index; type: cell-based; settings: SK-OV-3, 72 hr post compound treatment, read-out: calculated IC50
Description: The biological activity of compounds disclosed herein was monitored and profiled using the Real-Time Cell Electronic Sensing (RT-CES®) system from ACEA Biosciences, Inc. The RT-CES system utilizes cell-substrate impedance technology to monitor cellular behavior inside tissue culture wells in a microtiter plate format. The technology features in the integration of molecular and cell biology with microelectronics and is based on the electronic detection of biological assay process. […]
For measurement of cell-substrate or cell-electrode impedance using RT-CES technology, microelectrodes having appropriate geometries are fabricated onto the bottom surfaces of microtiter plate or similar device, facing into the wells. […] When there are changes to the biological status of the cells analogue electronic readout signals are measured automatically and in real time, and are converted to digital signals for processing and for analysis. In a RT-CES system, a cell index (arbitrary representation of change in impedance) is automatically derived and provided based on measured electrode impedance values. […]
To quantify cell status based on the measured cell-electrode impedance, a parameter termed Cell Index is derived. Cell Index is a quantitative measure of the status of the cells in an electrode-containing well. […]

[3] = system: A549 human lung cancer cells; experiment: Mitotic arrest, phosphohistone H3 staining (mitotic index); type: cell-based; settings: 33 nM
Description: Microtubules are extremely important in the process of mitosis, during which the duplicated chromosomes of a cell are separated into two identical sets before cleavage of the cell into two daughter cells. Compounds which target microtubules such as paclitaxel and vinblastine suppress the microtubule dynamics and block the process of mitosis. As consequence, cells will be arrested at G2/M phase. To test if COMPOUND O influences the process of mitosis in cancer cell dividing, A549 human lung cancer cells were treated with 33 nM of COMPOUND O and paclitaxel, or 0.2% DMSO that served as negative control. The treated cells were stained with an antibody against phosphohistone H3, a marker for cells undergoing mitosis and mitotic arrest. […] It was 44±8%, 45±3% and 3±1% for paclitaxel, COMPOUND O and DMSO treated A549, respectively.

[4] = Body weight and animal number of carrier mice, MKN45 xenograft test; type: in vivo, BALB/c immunodeficient nude mice; settings: for Animal No. end: 7 at beginning
Description: To evaluate the in vivo anticancer efficacy of COMPOUND O, MKN45 human gastric-intestinal cancer xenograft models in immunodeficient nude mice was tested. All the mouse models are maintained in the Pharmacology Lab of ACEA Bio (Hangzhou) CO., Ltd. The BALB/c immunodeficient nude mice were purchased from Shanghai SLAC Laboratory Animal, certification number: SCXKA (Shanghai) 2007-0005. The mouse weight was 19±1 g. Only female mice were used in this study. The numbers of animals tested were as follow: 7 for each dose group, 7 for positive control group and 7 for negative control group.
Test Control. For negative control, each mouse was administered orally with the solvent only having the same volume and same concentration as those used in COMPOUND O test, 120 mg/kg once every other day (qod) for 18 days. […]
Preparation an Administration of Test Compounds. COMPOUND O was dissolved in 25% phospholipid (S75) and 75% polyvinylpyrrolidone (PL-PVP) then further diluted to 8 mg/ml in 0.9% NaCl aqueous solution. Different dosages of COMPOUND O between 120 mg/kg qod (once every other day) and 160 mg/kg q3d (once every 3 days) were used in the study.
All used materials including animal food, animal cage, supporting materials and apparatus contacted by animals, were high-pressure sterilized. Nude mice were maintained in laminar flow shelves under SPF condition. After tumor transplantation, mouse weight and tumor size in each compound dosage group were dynamically monitored and plotted. The tumor size was determined by measuring the major axis (a) and minor axis (b) of the tumor, and tumor volume was calculated according to the formula: […]

IC50 [2]: 5.47 nM
Compound: CCc1ccc(Nc2nc(-c3c(C)nc4sccn34)cs2)cc1 [COMPOUND O, 2-(4-ethylphenyl)amino-4-(6-methylimidazo[2,1-b]thiazol-5-yl)-thiazole monohydrobromide]
apoptotic signal [1]: strong apoptotic signals (starting from 48 hr post drug treatment)
mitotic index [3]: 45±3%
Animal weight (g) Beginning ([4]; 120 mg/kg ig × 9 qod): 19 g
Animal weight (g) end ([4]; 120 mg/kg ig × 9 qod): 16.7 g
Body weight of mice (g) 1 day ([4]; 120 mg/kg ig × 9 qod): 19.03 ± 0.76 g
Body weight of mice (g) 4 day ([4]; 120 mg/kg ig × 9 qod): 19.53 ± 0.71 g
Body weight of mice (g) 8 day ([4]; 120 mg/kg ig × 9 qod): 18.24 ± 1.10 g
Body weight of mice (g) 11 day ([4]; 120 mg/kg ig × 9 qod): 18.21 ± 1.02 g
Body weight of mice (g) 16 day ([4]; 120 mg/kg ig × 9 qod): 17.09 ± 1.09 g
Body weight of mice (g) 18 day ([4]; 120 mg/kg ig × 9 qod): 16.71 ± 0.97 g
Animal No. end ([4]; 120 mg/kg ig × 9 qod): 7/7
Animal weight (g) Beginning ([4]; 160 mg/kg ig × 6 q3d): 18.3 g
Animal weight (g) end ([4]; 160 mg/kg ig × 6 q3d): 15.7 g
Body weight of mice (g) 1 day ([4]; 160 mg/kg ig × 6 q3d): 18.37 ± 0.66 g
Body weight of mice (g) 4 day ([4]; 160 mg/kg ig × 6 q3d): 19.10 ± 0.73 g
Body weight of mice (g) 8 day ([4]; 160 mg/kg ig × 6 q3d): 17.33 ± 1.52 g
Body weight of mice (g) 11 day ([4]; 160 mg/kg ig × 6 q3d): 17.15 ± 1.33 g
Body weight of mice (g) 16 day ([4]; 160 mg/kg ig × 6 q3d): 16.43 ± 1.47 g
Body weight of mice (g) 18 day ([4]; 160 mg/kg ig × 6 q3d): 15.73 ± 1.31 g
Animal No. end ([4]; 160 mg/kg ig × 6 q3d): 7/3

Compound: COc1cc([C@@H]2c3cc4c(cc3[C@@H](O[C@@H]3O[C@@H]5CO[C@@H](C)O[C@H]5[C@H](O)[C@H]3O)[C@H]3COC(=O)[C@H]23)OCO4)cc(OC)c1O [Etoposide, reference compound]
Animal weight (g) Beginning ([4]; 50 mg/kg ig × 6 q3d): 18.9 g
Animal weight (g) end ([4]; 50 mg/kg ig × 6 q3d): 16.9 g
Body weight of mice (g) 1 day ([4]; 50 mg/kg ig × 6 q3d): 18.94 ± 0.92 g
Body weight of mice (g) 4 day ([4]; 50 mg/kg ig × 6 q3d): 19.57 ± 1.16 g
Body weight of mice (g) 8 day ([4]; 50 mg/kg ig × 6 q3d): 17.17 ± 0.85 g
Body weight of mice (g) 11 day ([4]; 50 mg/kg ig × 6 q3d): 17.26 ± 1.24 g
Body weight of mice (g) 16 day ([4]; 50 mg/kg ig × 6 q3d): 16.94 ± 0.91 g
Body weight of mice (g) 18 day ([4]; 50 mg/kg ig × 6 q3d): 16.93 ± 0.75 g
Animal No. end ([4]; 50 mg/kg ig × 6 q3d): 7/7

IC50 [2]: 5.34 nM
Compound: CC(=O)O[C@H]1C(=O)[C@@]2(C)[C@H]([C@H](OC(=O)c3ccccc3)[C@]3(O)C[C@H](OC(=O)[C@H](O)[C@@H](NC(=O)c4ccccc4)c4ccccc4)C(C)=C1C3(C)C)[C@]1(OC(C)=O)CO[C@@H]1C[C@@H]2O [paclitaxel]
apoptotic signal [1]: strong apoptotic signals (starting from 48 hr post drug treatment)
mitotic index [3]: 44±8%
